Results published in PubChem BioAssay (NCI).
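Step 1: Grow cells in 96-well plates. Step 2: Expose to compound for 48 hours at 5 concentrations. Step 3: Interpolate endpoints linearly; if unreached, use highest concentration. At the TGI there is no net growth.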

Key:
Test in all cases: NCI anticancer screen, dose series, 48 h
[1] = system: HL-60(TB) leukemia
[2] = system: U251 CNS
[3] = system: BT-549 breast
[4] = system: NCI/ADR-RES ovarian
[5] = system: 786-0 renal
[6] = system: NCI-H460 lung
[7] = system: A549 NSCLC
[8] = system: SN12C renal
[9] = system: PC-3 prostate
[10] = system: SF-539 CNS
[11] = system: SF-268 CNS
[12] = system: SNB-75 CNS
[13] = system: NCI-H522 lung
[14] = system: SR leukemia
[15] = system: KM12 colon
[16] = system: MOLT-4 leukemia
[17] = system: HT29 colon
[18] = system: OVCAR-8 ovarian
[19] = system: UACC-62 melanoma
[20] = system: HOP-92 NSCLC
[21] = system: SF-295 CNS
[22] = system: SNB-19 CNS
[23] = system: SK-MEL-5 melanoma
[24] = system: UO-31 renal
[25] = system: NCI-H23 lung
[26] = system: M14 melanoma
[27] = system: HOP-62 NSCLC
[28] = system: OVCAR-4 ovarian
[29] = system: NCI-H226 lung
[30] = system: MALME-3M melanoma
[31] = system: SK-MEL-2 melanoma
[32] = system: CCRF-CEM leukemia
[33] = system: UACC-257 melanoma
[34] = system: ACHN renal
[35] = system: EKVX NSCLC
[36] = system: OVCAR-5 ovarian
[37] = system: DU-145 prostate
[38] = system: T-47D breast
[39] = system: MDA-MB-435
[40] = system: RPMI-8226 leukemia
[41] = system: SK-MEL-28 melanoma
[42] = system: A498 renal
[43] = system: K-562 leukemia
[44] = system: HCC-2998 colon
[45] = system: LOX IMVI melanoma
[46] = system: RXF 393 renal
[47] = system: MDA-N
[48] = system: CAKI-1 renal
[49] = system: HCT-116 colon
[50] = system: IGROV1 ovarian
[51] = system: HS 578T breast
[52] = system: OVCAR-3 ovarian
[53] = system: MDA-MB-231 breast
[54] = system: SW-620 colon
[55] = system: TK-10 renal
[56] = system: MCF7 breast
[57] = system: HCT-15 colon
[58] = system: COLO 205 colon
[59] = system: SK-OV-3 ovarian
[60] = system: M19-MEL melanoma
[61] = system: SNB-78 CNS
[62] = system: LXFL 529 NSCLC
[63] = system: DLD-1 colon
[64] = system: DMS 273 small cell lung
[65] = system: DMS 114 small cell lung

Measured: TGI

C(=C\c1nccs1)/c1cccc(/C=C/c2nccs2)n1
not listed: [60] | [61] | [62] | [63] | [64] | [65]
> 50 µM: all other assays above

C=C1C(=O)OC2C1CC[C@H](C)C13OC(=O)CC1[C@@]23C (some centres undefined)
not listed: [3] | [4] | [9] | [26] | [27] | [28] | [37] | [38] | [39] | [45] | [47] | [51] | [53] | [56] | [57]
> 100 µM: all other assays above
